From US20090098596A1, “PHOTOSTABLE FRET-COMPETENT BIARSENICAL-TETRACYSTEINE PROBES BASED ON FLUORINATED FLUORESCEINS” (priority 2006, published 2009)
Like-named read-outs stand apart in the source and are kept apart here.

Key:
[1] = Fluorescence lifetimes by TCSPC; type: physicochemical; details: for t (fluorescence lifetime), parent fluorophore: 20 mM buffer HEPES, pH 7.4; for t (fluorescence lifetime), P12-Complex: TCSPC
Method: (§1) Absorption and fluorescence spectra were measured with a UVIKON 943 Double Beam UV/Vis absorption spectrophotometer and with a Perkin Elmer LS50B fluorescence spectrophotometer, respectively. Lifetime measurements were made by TCSPC in a Horiba Jobin Yvon IBH Fluorescence Lifetime Spectrometer System. The excitation source at 495 nm was a NanoLED N-01 Aqua and the detection module was TBX-04-A. Irradiation was carried out using a Superlite SUV-DC-P system incorporating a 200W DC Super-Pressure short arc lamp coupled to a light guide for high UV transmission and an electronic timer for exposure time control (Lumatec GmbH,
The fluorescence lifetimes of the complexes obtained as described in section 3.1, were determined by TCSPC. The corresponding values for each parent fluorescein were also determined in 20 mM buffer HEPES, pH 7.4 for comparison.

[2] = Photostability (photobleaching under mercury arc lamp irradiation); type: physicochemical; details: complexes with P12
Method: FIG. 2 illustrates a graph illustrations photobleaching of F2F1AsH-P12 (◯), F4F1AsH-P12 (□) and F1AsH-P12 (+). Full lines correspond to exponential fits. Complexes of the three dyes (10 μM) were irradiated with a mercury arc lamp through a 490-560 nm filter with an irradiance of 70 mW/cm^2;
as §1
Samples containing 10 μM of the biarsenical compounds and 10 μM of the model peptide P12, were incubated at room temperature for 1 h. Each solution of the F1AsH-peptide complex was irradiated for 120 min as previously described (see General Procedures).
Values of κbl were calculated from the monoexponential fitting of the experimental photobleaching decay, according to the model described in (Eq. 1) for the intermediate irradieation regime.^13
where τ(s) is the lifetime, Ψ is the irradiance (photons cm^−2 s^−1) and σ is the molecular absorption cross-section (cm^2 molecules^−1). Inasmuch as a broad excitation bandwidth was used, σ was computed as a mean value over the spectral distribution function of photon flux and corrected by the spectral integral with the corresponding absorption spectra, including the irradiation source and filter.

[3] = Critical Förster distances of donor-acceptor combinations; type: physicochemical
From the text: F2F1AsH and F4F1AsH have a very favorable spectral overlap, leading to a large J (the overlap integral) and thus an R0 of 5.4 nm, greater than any of the values obtained with the other combinations of donors and acceptors based on biarsenical dyes. For example the F1ASH-ReAsH pair has an R0 of 3.9 nm. Thus, the new F2F1AsH-F4F1AsH probes constitute a new donor acceptor pair extending the dynamic range for heteroFRET in studies of living cells by 40%. They also provide new possibilities in combination with other FRET donors and acceptors within and outside the biarsenical family.

[4] = approximate value from ref 8; cited from earlier work
[5] = test system: model target peptide P12 (FLNCCPGCCMEP); experiment: In vitro labeling of model peptide P12; absorption and emission spectra of biarsenical-P12 complexes; type: physicochemical
Method: as §1
To a solution of the biarsenical compound in buffer HEPES 20 mM, 1 mM 2-ME, pH 7.4, at a concentration of 0.1 μM and with a slight excess of EDT, was added the model target peptide P12 ([…]) to a final concentration of 1 μM from a stock solution in the same buffer and treated with 10 mM TCEP to reduce any disulfide bond. Emission spectra were taken after two hours of formation of the complex. FIG. 4 depicts the emision spectra of the F2F1AsH, F4F1AsH and F1AsH at equal concentration, with excitation at 490 nm. A 4-fold enhanced fluorescence emission of F2F1AsH compared to F1AsH can be observed.

Row | Compound | t (fluorescence lifetime), parent fluorophore [1] | wavelength of fluorescence maximum [2] | t (fluorescence lifetime), P12-Complex [1] | 10^13 · J (overlap integral) ([3]; acceptor F4FlAsH) | Ro ([3]; acceptor F4FlAsH) | 10^14 · J (overlap integral) ([3]; acceptor ReAsH) | Ro ([3]; acceptor ReAsH) | other results
1 | O=C1OC2(c3ccc(O)cc3Oc3cc(O)ccc32)c2c(F)c(F)c(F)c(F)c21 [3,4,5,6-tetrafluorofluorescein] | 4.13 ns |  |  |  |  |  |  | 
2 | O=C1OC2(c3ccccc31)c1ccc(O)c([As]3SCCS3)c1Oc1c2ccc(O)c1[As]1SCCS1 [FlAsH, 4′,5′-Bis(1,2,3-dithioarsolan-2-yl)-fluorescein, reference compound] |  | 519.5 nm | 4.88 ns | 1.48 | 4.7 nm | 5.03 | 3.9 nm | τ (fluorescence lifetime) ([1]; biarsenical-P12 complex): 4.88 ns; Φd, emission quantum yield of donor [4]: ~0.4
3 | O=C1OC2(c3ccc(O)c([As]4SCCS4)c3Oc3c2ccc(O)c3[As]2SCCS2)c2c(F)c(F)c(F)c(F)c21 [F4FlAsH, 4′,5′-Bis(1,2,3-dithioarsolan-2-yl)-3,4,5,6-tetrafluorofluorescein] |  | 538 nm | 5.18 ns | 1.17 | 4.5 nm | 6.45 | 4.1 nm | displacement of absorption maximum to the red compared to FlAsH [5]: 17 mn; Φd, emission quantum yield of donor [3]: 0.4
4 | O=C1OC2(c3cc(F)c(O)cc3Oc3cc(O)c(F)cc32)c2ccccc21 [2′,7′-difluorofluorescein] | 4.02 ns |  |  |  |  |  |  | 
5 | O=C1OC2(c3ccccc31)c1cc(F)c(O)c([As]3SCCS3)c1Oc1c2cc(F)c(O)c1[As]1SCCS1 [F2FlAsH, 4′,5′-Bis(1,2,3-dithioarsolan-2-yl)-2′,7′-difluorofluorescein] |  | 516 nm | 4.78 ns | 1.58 | 5.4 nm | 3.44 | 4.1 nm | shift of absorption maximum to the blue compared to FlAsH [5]: 11 nm; emission quantum yield relative to FlAsH complex ([5]; P12 complex): 2 ×; extinction coefficient at 490 nm relative to FlAsH complex ([5]; P12 complex): 2 ×; fluorescence intensity relative to complex with parent FlAsH ([5]; P12 complex, λexc 490 nm, λem 525 nm): 4 fold; λem ([5]; biarsenical-P12 complex): 522 nm; Stokes shift ([5]; complex with P12): 22 nm; Stokes shift, greater than that of the FlAsH complex by ([5]; complex with P12): 7 nm; 10^13 · J (overlap integral) ([3]; acceptor F2FlAsH): 1.37; Ro ([3]; acceptor F2FlAsH): 5.2 nm; 10^14 · J (overlap integral) ([3]; acceptor FlAsH): 6.41; Ro ([3]; acceptor FlAsH): 4.1 nm
